Experimental data published in publication PMC6362346, “Serendipita indica E5′NT modulates extracellular nucleotide levels in the plant apoplast and affects fungal colonization” (EMBO Reports, 2019).

Target: T1, SiE5′NT (Serendipita indica, UniProt G4T774)
T1 construct: gene PIIN_01005; untagged full-length with signal peptide and predicted GPI anchor, 35S promoter, expressed in Arabidopsis thaliana (line 303 1L3); detergent-solubilised membrane protein preparation
T1 sequence (G4T774 20-579): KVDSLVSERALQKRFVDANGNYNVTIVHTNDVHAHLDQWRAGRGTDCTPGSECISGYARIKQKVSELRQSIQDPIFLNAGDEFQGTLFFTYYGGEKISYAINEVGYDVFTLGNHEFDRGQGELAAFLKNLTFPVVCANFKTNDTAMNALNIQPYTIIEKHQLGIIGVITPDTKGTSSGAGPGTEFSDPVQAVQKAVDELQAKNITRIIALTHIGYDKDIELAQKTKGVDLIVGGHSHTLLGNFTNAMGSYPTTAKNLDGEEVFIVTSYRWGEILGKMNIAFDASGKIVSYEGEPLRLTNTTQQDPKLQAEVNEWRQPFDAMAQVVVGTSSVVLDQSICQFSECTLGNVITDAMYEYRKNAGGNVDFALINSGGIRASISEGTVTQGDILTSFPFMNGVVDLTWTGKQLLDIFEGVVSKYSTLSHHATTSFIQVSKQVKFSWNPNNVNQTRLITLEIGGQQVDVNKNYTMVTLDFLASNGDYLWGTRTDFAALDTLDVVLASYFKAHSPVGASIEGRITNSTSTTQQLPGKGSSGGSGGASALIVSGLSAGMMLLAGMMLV
Test: phosphate release (EnzChek phosphate assay), membrane protein preparation of transgenic A. thaliana versus mCherry control line
Assay type: biochemical
Settings: 100 μM substrate, 10 mM Tris/MES, 2 mM MgCl2, 30 mM KCl, pH 6.5

Row | Compound | phosphate release (EnzChek phosphate assay), membrane protein preparation of tra
1 | Nc1ncnc2c1ncn2[C@@H]1O[C@H](COP(=O)(O)O)[C@@H](O)[C@H]1O [AMP] | production of a membrane‐localized enzyme capable of hydrolyzing ATP, ADP, and AMP
2 | Nc1ncnc2c1ncn2[C@@H]1O[C@H](COP(=O)(O)OP(=O)(O)OP(=O)(O)O)[C@@H](O)[C@H]1O [ATP] | production of a membrane‐localized enzyme capable of hydrolyzing ATP, ADP, and AMP
